Laboratory results published in patent US10010614B2, “Derivatives of GLP-1 like peptides, and uses thereof” (Novo Nordisk A/S, priority 2013, dated 2018).
Where two headings read alike, the source gives them in different places. Numbered stars: 1 amine (or outer) side, 2 acyl side, 3 side chain; on linkers, the order of the positions; unused ones are H or OH. Square brackets hold non-standard residues; d marks the D form. Side chains are listed from the residue outwards. Peptide text beside a SMILES is read from it. * marks the point of attachment. C20 diacid = O=C(O)CCCCCCCCCCCCCCCCCCC(=O)*; γGlu = O=C(O)[C@H](CCC(=O)[*:2])N[*:1]; Desaminohistidyl = O=C(CCc1c[nH]cn1)*; Trx = NC[C@H]1CC[C@H](C(=O)O)CC1; AEEA = NCCOCCOCC(=O)O; Aib = CC(C)(N)C(=O)O

Legend:
human GLP-1 receptor [1] = biological target: T1, human GLP-1 receptor (Homo sapiens, UniProt P43220); test: GLP-1 receptor binding, competitive binding assay (125I-GLP-1, SPA) on isolated membranes;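 further: test compounds added at a range of concentrations to membranes from cells expressing the human GLP-1 receptor, scored by displacement of labelled ligand, read with WGA SPA beads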
T1 construct: expressed in transfected cells; host or cells: membranes prepared from BHK cells (parent line BHKTS13), clone FCW467-12A
Experimental: The purpose of this example is to test the receptor binding of the GLP-1 derivatives in vitro. The receptor binding is a measure of affinity of a derivative for the human GLP-1 receptor.
In this type of assay a labelled ligand (in this case ^125I-GLP-1) is bound to the receptor. Each derivative is added in a series of concentrations to isolated membranes containing the human GLP-1 receptor and displacement of the labelled ligand is monitored. The receptor binding is reported as the concentration at which half of the labelled ligand is displaced from the receptor, the IC50 value.
The following chemicals were used in the assay: Human serum albumin (HSA) (Sigma A1653), DMEM w/o phenol red (Gibco 11880-028), Pen/strep (Invitrogen 15140-122), G418 (Invitrogen 10131-027), 1 M Hepes (Gibco 15630), EDTA (Invitrogen 15575-038), PBS (Invitrogen 14190-094), fetal calf serum (Invitrogen 16140-071), EGTA, MgCl2 (Merck 1.05832.1000), Tween 20 (Amresco 0850C335), SPA particles (wheat germ agglutinin (WGA) SPA beads, Perkin Elmer RPNQ0001), [^125I]-GLP-1]-(7-36)NH2 (produced in-house), OptiPlate™-96 (Packard 6005290).
Buffer 1 consisted of 20 mM Na-HEPES plus 10 mM EDTA and pH was adjusted to 7.4. Buffer 2 consisted of 20 mM Na-HEPES plus 0.1 mM EDTA and pH was adjusted to 7.4. Assay buffer consisted of 50 mM HEPES supplemented with 5 mM EGTA, 5 mM MgCl2, 0.005% Tween 20 and pH was adjusted to 7.4. An 8% albumin stock consisted of HSA dissolved at 8% (w/v) in assay buffer. An 0.02% albumin stock consisted of HSA dissolved at 0.02% (w/v) in assay buffer.
The cells express the human GLP-1 receptor.
The cells were grown at 5% CO2 in DMEM, 10% fetal calf serum, 1% Pen/Strep (Penicillin/Streptomycin) and 1.0 mg/ml of the selection marker G418.
To make a membrane preparation the cells were grown to approximately 80% confluence. The cells were washed twice in phosphate-buffered saline and harvested. The cells were pelleted using a brief centrifugation and the cell pellet was kept on ice. The cell pellet was homogenised with ULTRA-THURRAX™ dispersing instrument for 20-30 seconds in a suitable amount of buffer 1 (e.g., 10 ml). The homogenate was centrifuged for 15 minutes. The pellet was re-suspended (homogenised) in 10 ml buffer 2 and centrifuged. This step was repeated once more. The resulting pellet was re-suspended in buffer 2 and the protein concentration was determined. The membranes were aliquoted and stored at minus 80° C.
For the receptor binding assay in the presence of low HSA (0.005%) 50 μl of the assay buffer was added to each well of an assay plate.
For the receptor binding assay in the presence of high HSA (2%) 50 μl of the 8% albumin stock was added to each well of an assay plate.
Cell membrane aliquots were thawed and diluted to their working concentration. Fifty μl were added to each well in the assay plate.
WGA SPA beads were suspended in assay buffer at 20 mg/ml. The suspension was diluted to 10 mg/ml in assay buffer just prior to addition to the assay plate. Fifty μl were added to each well in the assay plate.
The incubation was started by adding 25 μl of 480 pM solution of [^125I]-GLP-1]-(7-36)NH2 to each well of the assay plate. A 25 μl aliquot was reserved for measuring total counts/well.
The assay plate was incubated for 2 h at 30° C.
The assay plate was centrifuged for 10 min.
The assay plate was read in a Packard TopCount NXT instrument.
The data from the TopCount instrument were transferred to GraphPad Prism software. The software averaged the values for the replicates and performed a non-linear regression. IC50 values were calculated by the software and reported in nM.

human GLP-1 receptor [2] = biological target: T1, human GLP-1 receptor; test: In vitro potency, CRE luciferase reporter gene assay in BHK cells expressing the human GLP-1 receptor; type: cell-based; conditions: whole cell reporter gene assay, 3 h incubation, no HSA, averages of at least two replicates
Experimental: The purpose of this example is to test the activity, or potency, of the GLP-1 derivatives in vitro. The in vitro potency is the measure of human GLP-1 receptor activation in a whole cell assay.
Semaglutide was included for comparison.
In vitro potency was determined by measuring the response of the human GLP-1 receptor in a reporter gene assay. The assay was performed in a stably transfected BHK cell line that expresses the human GLP-1 receptor and contains the DNA for the cAMP response element (CRE) coupled to a promoter and the gene for firefly luciferase (CRE luciferase). When the human GLP-1 receptor is activated it results in the production of cAMP, which in turn results in the luciferase protein being expressed. When assay incubation is completed the luciferase substrate (luciferin) is added and the enzyme converts luciferin to oxyluciferin to produce bioluminescence. The luminescence is measured as the readout for the assay.
The cells used in this assay (clone FCW467-12A/KZ10-1) were BHK cells with BHKTS13 as a parent cell line. The cells were derived from a clone (FCW467-12A) that expresses the human GLP-1 receptor and were established by further transfection with CRE luciferase to obtain the current clone.
The cells were cultured at 5% CO2 in Cell Culture Medium. They were aliquoted and stored in liquid nitrogen. Before each assay an aliquot is taken up and washed twice in PBS before being suspended at the desired concentration in the assay specific buffer. For 96-well plates the suspension was made to give a final concentration of 5×10^3 cells/well.
The following chemicals were used in the assay: Pluronic F-68 (10%) (Gibco 2404), human serum albumin (HSA) (Sigma A9511), ovalbumin (Sigma A5503), DMEM w/o phenol red (Gibco 11880-028), 1 M Hepes (Gibco 15630), Glutamax 100× (Gibco 35050) and steadylite plus (PerkinElmer 6016757).
Cell Culture Medium consisted of DMEM medium with 10% FBS (Fetal Bovine Serum; Invitrogen 16140-071), 1 mg/ml G418 (Invitrogen 15140-122), 240 nM MTX (methotrexate; Sigma M9929) and 1% pen/strep (penicillin/streptomycin; Invitrogen 15140-122).
Assay Medium consisted of DMEM w/o phenol red, 10 mM Hepes and 1× Glutamax. The Assay Buffer consisted of 2% ovalbumin and 0.2% Pluronic F-68 in Assay Medium.
1) Cell stocks were thawed in a 37° C. water bath.
2) Cells were washed three times in PBS.
3) The cells were counted and adjusted to 5×10^3 cells/50 μl (1×10^5 cells/ml) in Assay Medium. A 50 μl aliquot of cells was transferred to each well in the assay plate.
4) Stocks of the test compounds and reference compounds were diluted to a concentration of 0.2 μM in Assay Buffer. Compounds were diluted 10-fold to give the following concentrations: 2×10^−7 M, […]; 2×10^−9 M, 2×10^−10 M, 2×10^−11 M, 2×10^−12 M, 2×10^−13 M, and 2×10^−14 M. 5) A 50 μl aliquot of compound or blank was transferred from the dilution plate to the assay plate. Compounds were tested at the following final concentrations: 1×10^−7 M, 1×10^−8 M; 1×10^−9 M, 1×10^−10 M, 1×10^−11 M, 1×10^−12 M, 1×10^−13 M, and 1×10^−14 M. 6) The assay plate was incubated for 3 h in a 5% CO2 incubator at 37° C. 7) The assay plate was removed from the incubator and allowed to stand at room temperature for 15 min. 8) A 100 μl aliquot of steadylite plus reagent was added to each well of the assay plate (reagent was light sensitive). 9) Each assay plate was covered with aluminum foil to protect it from light and shaken for 30 min at room temperature. 10) Each assay plate was read in a Packard TopCount NXT instrument. Calculations and Results
The data from the TopCount instrument were transferred to GraphPad Prism software. The software performs a non-linear regression (log(agonist) vs response).
A minimum of two replicates was measured for each sample. The reported values are averages of the replicates.

[3] = High HSA IC50 (nM), high serum albumin (2.0% HSA final assay concentration)
[4] = Low HSA IC50 (nM), low serum albumin (max. 0.001% final assay concentration)
[5] = high serum albumin (2.0% HSA final assay concentration), read-out: High HSA IC50
[6] = low serum albumin (max. 0.001% final assay concentration), read-out: Low HSA IC50

T1 sequence (P43220 24-463): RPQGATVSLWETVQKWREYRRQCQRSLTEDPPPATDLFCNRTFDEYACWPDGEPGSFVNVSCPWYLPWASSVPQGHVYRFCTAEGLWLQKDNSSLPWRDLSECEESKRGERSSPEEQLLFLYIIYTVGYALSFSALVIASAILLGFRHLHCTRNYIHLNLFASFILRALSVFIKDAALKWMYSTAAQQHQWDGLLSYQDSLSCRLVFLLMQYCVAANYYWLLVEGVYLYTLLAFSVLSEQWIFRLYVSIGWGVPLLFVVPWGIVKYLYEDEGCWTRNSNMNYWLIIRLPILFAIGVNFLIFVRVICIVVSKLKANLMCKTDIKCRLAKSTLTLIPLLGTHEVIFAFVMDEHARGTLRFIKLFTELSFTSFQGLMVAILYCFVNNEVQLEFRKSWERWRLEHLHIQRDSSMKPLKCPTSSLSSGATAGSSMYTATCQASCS

Row | Compound | IC50 (human GLP-1 receptor [1]; [3]) | IC50 (human GLP-1 receptor [1]; [4]) | EC50 (human GLP-1 receptor [2]) | IC50 (human GLP-1 receptor [1]; [5]) | IC50 (human GLP-1 receptor [1]; [6])
1 | CC[C@H](C)[C@H](NC(=O)[C@H](Cc1ccccc1)NC(=O)[C@H](CCC(=O)O)NC(=O)[C@H](CCCNC(=N)N)NC(=O)[C@H](C)NC(=O)[C@H](C)NC(=O)[C@H](CCC(N)=O)NC(=O)[C@H](CCC(=O)O)NC(=O)[C@H](CCC(=O)O)NC(=O)[C@H](CC(C)C)NC(=O)[C@H](Cc1ccc(O)cc1)NC(=O)[C@H](CO)NC(=O)[C@H](CO)NC(=O)[C@@H](NC(=O)[C@H](CC(=O)O)NC(=O)[C@H](CO)NC(=O)[C@@H](NC(=O)[C@H](Cc1ccccc1)NC(=O)[C@@H](NC(=O)CNC(=O)[C@H](CCC(=O)O)NC(=O)C(C)(C)NC(=O)[C@@H](N)Cc1c[nH]cn1)[C@@H](C)O)[C@@H](C)O)C(C)C)C(=O)N[C@@H](C)C(=O)N[C@@H](Cc1c[nH]c2ccccc12)C(=O)N[C@@H](CC(C)C)C(=O)N[C@H](C(=O)N[C@@H](CCCNC(=N)N)C(=O)NCC(=O)N[C@@H](CCCCNC(=O)COCCOCCNC(=O)COCCOCCNC(=O)CC[C@H](NC(=O)[C@H]1CC[C@H](CNC(=O)CCCCCCCCCCCCCCCCCCC(=O)O)CC1)C(=O)O)C(=O)NCC(=O)N1CCC[C@H]1C(=O)N[C@@H](C)C(=O)N[C@@H](CO)C(=O)N[C@@H](CCC(=O)O)C(=O)N[C@@H](CCCCNC(=O)COCCOCCNC(=O)COCCOCCNC(=O)CC[C@H](NC(=O)[C@H]1CC[C@H](CNC(=O)CCCCCCCCCCCCCCCCCCC(=O)O)CC1)C(=O)O)C(=O)O)C(C)C [Example 15] (H-H[Aib]EGTFTSDVSSYLEEQAAREFIAWLVRGK([AEEA-AEEA-γGlu-Trx-C20 diacid])GPASEK([AEEA-AEEA-γGlu-Trx-C20 diacid])-OH) | 928 nM | 1.6 nM | 0.02 nM | – | –
2 | CC[C@H](C)[C@H](NC(=O)[C@H](Cc1ccccc1)NC(=O)[C@H](CCC(=O)O)NC(=O)[C@H](CCCNC(=N)N)NC(=O)[C@H](C)NC(=O)[C@H](C)NC(=O)[C@H](CCC(N)=O)NC(=O)[C@H](CCC(=O)O)NC(=O)[C@H](CCC(=O)O)NC(=O)[C@H](CC(C)C)NC(=O)[C@H](Cc1ccc(O)cc1)NC(=O)[C@H](CO)NC(=O)[C@H](CO)NC(=O)[C@@H](NC(=O)[C@H](CC(=O)O)NC(=O)[C@H](CO)NC(=O)[C@@H](NC(=O)[C@H](Cc1ccccc1)NC(=O)[C@@H](NC(=O)CNC(=O)[C@H](CCC(=O)O)NC(=O)C(C)(C)NC(=O)[C@@H](N)Cc1c[nH]cn1)[C@@H](C)O)[C@@H](C)O)C(C)C)C(=O)N[C@@H](C)C(=O)N[C@@H](Cc1c[nH]c2ccccc12)C(=O)N[C@@H](CC(C)C)C(=O)N[C@H](C(=O)N[C@@H](CCCNC(=N)N)C(=O)NCC(=O)N[C@@H](CCCCNC(=O)COCCOCCNC(=O)COCCOCCNC(=O)CC[C@H](NC(=O)[C@H]1CC[C@H](CNC(=O)CCCCCCCCCCCCCCCCCCC(=O)O)CC1)C(=O)O)C(=O)NCC(=O)N[C@@H](CCC(=O)O)C(=O)NCC(=O)N1CCC[C@H]1C(=O)N[C@@H](C)C(=O)N[C@@H](CCCCNC(=O)COCCOCCNC(=O)COCCOCCNC(=O)CC[C@H](NC(=O)[C@H]1CC[C@H](CNC(=O)CCCCCCCCCCCCCCCCCCC(=O)O)CC1)C(=O)O)C(=O)O)C(C)C [Example 16] (H-H[Aib]EGTFTSDVSSYLEEQAAREFIAWLVRGK([AEEA-AEEA-γGlu-Trx-C20 diacid])GEGPAK([AEEA-AEEA-γGlu-Trx-C20 diacid])-OH) | 602 nM | 1.4 nM | 0.025 nM | – | –
3 | CC[C@H](C)[C@H](NC(=O)[C@H](Cc1ccccc1)NC(=O)[C@H](CCC(=O)O)NC(=O)[C@H](CCCNC(=N)N)NC(=O)[C@H](C)NC(=O)[C@H](C)NC(=O)[C@H](CCC(N)=O)NC(=O)[C@H](CCC(=O)O)NC(=O)[C@H](CCC(=O)O)NC(=O)[C@H](CC(C)C)NC(=O)[C@H](Cc1ccc(O)cc1)NC(=O)[C@H](CO)NC(=O)[C@H](CO)NC(=O)[C@@H](NC(=O)[C@H](CC(=O)O)NC(=O)[C@H](CO)NC(=O)[C@@H](NC(=O)[C@H](Cc1ccccc1)NC(=O)[C@@H](NC(=O)CNC(=O)[C@H](CCC(=O)O)NC(=O)C(C)(C)NC(=O)[C@@H](N)Cc1c[nH]cn1)[C@@H](C)O)[C@@H](C)O)C(C)C)C(=O)N[C@@H](C)C(=O)N[C@@H](Cc1c[nH]c2ccccc12)C(=O)N[C@@H](CC(C)C)C(=O)N[C@H](C(=O)N[C@@H](CCCNC(=N)N)C(=O)NCC(=O)N[C@@H](CCCNC(=N)N)C(=O)NCC(=O)N[C@@H](CCCCNC(=O)COCCOCCNC(=O)COCCOCCNC(=O)COCCOCCNC(=O)COCCOCCNC(=O)CC[C@H](NC(=O)CCCCCCCCCCCCCCCCCCC(=O)O)C(=O)O)C(=O)NCC(=O)NCC(=O)N[C@@H](CO)C(=O)N[C@@H](CCCCNC(=O)COCCOCCNC(=O)COCCOCCNC(=O)COCCOCCNC(=O)COCCOCCNC(=O)CC[C@H](NC(=O)CCCCCCCCCCCCCCCCCCC(=O)O)C(=O)O)C(=O)O)C(C)C [Example 19] (H-H[Aib]EGTFTSDVSSYLEEQAAREFIAWLVRGRGK([AEEA-AEEA-AEEA-AEEA-γGlu-C20 diacid])GGSK([AEEA-AEEA-AEEA-AEEA-γGlu-C20 diacid])-OH; N-terminus and C-terminus assumed) | – | – | 0.0062 nM | 142 nM | 2.4 nM
4 | CC[C@H](C)[C@H](NC(=O)[C@H](Cc1ccccc1)NC(=O)[C@H](CCC(=O)O)NC(=O)[C@H](CCCNC(=N)N)NC(=O)[C@H](C)NC(=O)[C@H](C)NC(=O)[C@H](CCC(N)=O)NC(=O)[C@H](CCC(=O)O)NC(=O)[C@H](CCC(=O)O)NC(=O)[C@H](CC(C)C)NC(=O)[C@H](Cc1ccc(O)cc1)NC(=O)[C@H](CO)NC(=O)[C@H](CO)NC(=O)[C@@H](NC(=O)[C@H](CC(=O)O)NC(=O)[C@H](CO)NC(=O)[C@@H](NC(=O)[C@H](Cc1ccccc1)NC(=O)[C@@H](NC(=O)CNC(=O)[C@H](CCC(=O)O)NC(=O)C(C)(C)NC(=O)CCc1cnc[nH]1)[C@@H](C)O)[C@@H](C)O)C(C)C)C(=O)N[C@@H](C)C(=O)N[C@@H](Cc1c[nH]c2ccccc12)C(=O)N[C@@H](CC(C)C)C(=O)N[C@H](C(=O)N[C@@H](CCCNC(=N)N)C(=O)NCC(=O)N[C@@H](CCCNC(=N)N)C(=O)NCC(=O)N[C@@H](CCCCNC(=O)COCCOCCNC(=O)COCCOCCNC(=O)COCCOCCNC(=O)COCCOCCNC(=O)CC[C@H](NC(=O)CCCCCCCCCCCCCCCCCCC(=O)O)C(=O)O)C(=O)NCC(=O)NCC(=O)N[C@@H](CO)C(=O)N[C@@H](CCCCNC(=O)COCCOCCNC(=O)COCCOCCNC(=O)COCCOCCNC(=O)COCCOCCNC(=O)CC[C@H](NC(=O)CCCCCCCCCCCCCCCCCCC(=O)O)C(=O)O)C(=O)O)C(C)C [Example 20] (Desaminohistidyl-[Aib]EGTFTSDVSSYLEEQAAREFIAWLVRGRGK([AEEA-AEEA-AEEA-AEEA-γGlu-C20 diacid])GGSK([AEEA-AEEA-AEEA-AEEA-γGlu-C20 diacid])-OH; C-terminus assumed) | – | – | 0.0084 nM | 270 nM | 4.1 nM
